{"source": "patent US10045961B2", "about": "“Use of sting agonists to treat chronic hepatitis B virus infection” (DREXEL UNIVERSITY, priority 2013, dated 2018)", "molecules": {"B1": {"name": "IL-6: Recombinant murine IL-6 from PBL InterferonSource (protein, UniProt P08505 25-211, looked up)", "Interleukin-6": "FPTSQVRRGDFTEDTTPNRPVYTTSQVGGLITHVLWEIVEMRKELCNGNSDCMNNDDALAENNLKLPEIQRNDGCYQTGYNQEICLLKISSGLLEYHSYLEYMKNNLKDNKKDKARVLQRDTETLIHIFNQEVKDLHKIVLPTPISNALLTDKLESQKEWLRTKTIQFILKSLEEFLKVTLRSTRQT"}}, "key": {"[1]": {"system": "HBV DNA replication in AML12HBV10 cells", "experiment": "Direct treatment of AML12HBV10 cells, cytoplasmic HBV core DNA by Southern blot", "conditions": "for HBV DNA replication, direct treatment: AML12HBV10 cells treated directly for 2 days, cytoplasmic HBV core DNA; for HBV DNA replication, cytokine treatment: AML12HBV10 cells treated for 4 days", "quoted_text": "AML12HBV10, an immortalized murine hepatocyte (AML12)-derived cell line supporting high level of HBV replication in a tetracycline (tet)-inducible manner, was maintained as described in Xu C, et al. Interferons accelerate decay of replication-competent nucleocapsids of hepatitis B virus.\nHBV core DNA extraction from AML12HBV10 cells as well as analyses by Southern blot hybridization and real-time PCR assays were as described previously in Xu C, et al. Interferons accelerate decay of replication-competent nucleocapsids of hepatitis B virus. […] Total cellular RNA was extracted using TRIzol reagent (Invitrogen). HBV RNA was analyzed by Northern blot hybridization with an α-^32P-UTP-labeled full-length minus-stranded RNA probe. HBV capsid and capsid associated viral DNA was analyzed by a native agarose gel electrophoresis followed by transfer to a nitrocellulose membrane. HBV capsids were detected by probing the membrane with an antibody against HBV core protein followed by visualizing with LI-COR Odyssey system. Capsid-associated DNA was detected by hybridization with radioactively labeled HBV riboprobe.\n(§4) The assay system was first validated with known TLR agonists. […] Twenty-four hours later, the cells were treated with the indicated concentrations of TLR agonists (direct treatment) (FIG. 1B). […] Cytoplasmic HBV core DNA was analyzed by Southern blot hybridization two days post treatment.\n(§5) AMLHBV10 cells, grown in Dulbecco's Modification of Eagle's Medium (DMEM)/F12 medium with 1 μg/ml of tetracycline were seeded in 12-well plate at density of 1×10^5 cell/well for 1 day in absence of tetracycline to release HBV replication. […] HBV core DNA was extracted from AML12HBV10 cells 2 days post treatment, and detected by Southern blot assay.\nCytoplasmic HBV core DNA was analyzed by Southern blot hybridization. NT controls were as described in FIG. 1B (FIG. 3B). […] AML12HBV10 cells treated with the indicated concentrations of mouse alpha IFN (mIFN-α) for 2 days served as positive controls. Cytoplasmic HBV core DNA was analyzed by Southern blot hybridization (FIG. 3D)."}, "[2]": {"system": "HBV DNA replication in AML12HBV10 cells", "experiment": "Indirect treatment: conditioned media from treated RAW264.7 macrophages applied to AML12HBV10 cells, HBV core DNA by Southern blot", "conditions": "AML12HBV10 cells treated 2 days with 50% conditioned media from RAW264.7 cells treated 12 h", "quoted_text": "as §4, §5\nIntracellular HBV RNA was determined by Northern blot (ribosomal RNA served as loading control). HBV core protein was determined by Western blot assay using antibody against carboxyl terminal 14 amino acid of HBV core protein (β-actin served as loading control). HBV nucleocapsids were examined by a particle gel assay to detect both the intact nucleocapsids and capsid-associated HBV DNA. Encapsidated HBV (core DNA) replication intermediates (RC, DSL and SS) were determined by Southern blot assay.\nUsing the assay system described above, 75 flavonoids in MicroSource compound collection (MicroSource Discovery Systems, Inc.) were tested again. […] Cytoplasmic HBV core DNA was analyzed by Southern blot hybridization. […] AML12HBV10 cells treated with the indicated concentrations of mouse alpha IFN (mIFN-α) for 2 days served as positive controls. Cytoplasmic HBV core DNA was analyzed by Southern blot hybridization (FIG. 3D)."}, "[3]": {"system": "TBK1", "experiment": "Western blot of TBK1 phosphorylation in RAW264.7 cells", "type": "cell-based, mouse", "conditions": "125 μM DMXAA", "source_text": "(§1) Total cellular proteins were fractioned by SDS-PAGE and transferred onto PVDF membranes. Total and phosphorylated STING, TBK1, p38, JNK and Erk as well as IkB-α were detected by Western blot assays with their specific antibodies. β-actin served as a loading control."}, "[4]": {"system": "IκBα", "experiment": "Western blot of IκBα degradation in RAW264.7 cells", "type": "cell-based, mouse", "conditions": "125 μM DMXAA", "source_text": "as §1"}, "[5]": {"system": "MAPK pathways", "experiment": "Western blot of MAPK pathway activation (phosphorylated p38α, JNK, ERK) in RAW264.7 cells", "type": "cell-based, mouse", "source_text": "as §1"}, "[6]": {"system": "HBV capsids", "experiment": "HBV core protein, capsids and capsid-associated DNA in AML12HBV10 cells after indirect treatment", "type": "cell-based, hepatitis B virus", "conditions": "2 days; for amount of HBV capsid protein: Western blot", "procedure": "HBV core DNA extraction from AML12HBV10 cells as well as analyses by Southern blot hybridization and real-time PCR assays were as described previously in Xu C, et al. Interferons accelerate decay of replication-competent nucleocapsids of hepatitis B virus. J Virol 2010; 84:9332-40, and Campagna M R, et al. Sulfamoylbenzamide Derivatives Inhibit the Assembly of Hepatitis B Virus Nucleocapsids. J Virol 2013. Total cellular RNA was extracted using TRIzol reagent (Invitrogen). HBV RNA was analyzed by Northern blot hybridization with an α-^32P-UTP-labeled full-length minus-stranded RNA probe. HBV capsid and capsid associated viral DNA was analyzed by a native agarose gel electrophoresis followed by transfer to a nitrocellulose membrane. HBV capsids were detected by probing the membrane with an antibody against HBV core protein followed by visualizing with LI-COR Odyssey system. Capsid-associated DNA was detected by hybridization with radioactively labeled HBV riboprobe.\nIn order to map the HBV replication step(s) being inhibited by DMXAA-induced antiviral response in macrophages, AML12HBV10 cells were treated with conditioned media harvested from TLR agonist- or DMXAA-treated RAW264.7 cells. […]. The AML12HBV10 cells were harvested 2 days after treatment for the following analysis: (FIG. 4A) Intracellular HBV RNA was determined by Northern blot (pgRNA, pre-genomic RNA, envRNAs, viral mRNAs specifying envelope proteins. 18S ribosomal RNA (rRNA) served as loading controls); (FIG. 4B) HBV core protein was determined by Western blot assay using total cell lysate (β-actin served as a loading control); the amounts of HBV capsids (FIG. 4C) and capsid-associated HBV DNA (FIG. 4D) were determined by a native agarose gel assay; and (FIG. 4E) Cytoplasmic HBV core DNA was determined by Southern blot hybridization."}, "[7]": {"system": "HBV DNA in AML12HBV10 cells", "experiment": "Blockade of type I IFN receptor (IFNAR1 antibody) in AML12HBV10 cells, HBV DNA by real-time PCR", "type": "cell-based, hepatitis B virus", "conditions": "AML12HBV10 cells pre-incubated with 10 μg/ml IFNAR1 antibody; mIFN-α directly or conditioned media from DMXAA-treated RAW264.7 cells", "procedure": "AML12HBV10 cells cultured in absence of tetracycline for 1 day, were incubated either with or without 10 μg/ml of a monoclonal antibody against type I interferon receptor IFNAR1 (Ab INFAR) at 37° C. for 1 h, followed by treatment for 2 days with the indicated concentrations of mIFN-α (FIG. 7A) or 50% of conditioned media harvested from RAW264.7 cells (treated with the indicated concentrations of DMXAA for 12 h) (FIG. 7B). Cytolplasmic HBV DNA were quantified by a real-time PCR assay and data (mean±standard deviation, N=4) were presented as percentage of mock-treated controls (NT). AML12HBV10 cells cultured in the absence of tetracycline were treated with the indicated concentrations of IL-1, IL-6 or TNF-α for 4 days (FIG. 7C). Cytoplasmic HBV core DNA was analyzed by Southern blot hybridization."}, "[8]": {"system": "HBV DNA in AML12HBV10 cells", "experiment": "Conditioned media from shSTING RAW264.7 cells on AML12HBV10 cells, HBV core DNA by real time PCR", "type": "cell-based, hepatitis B virus", "conditions": "2 days"}, "[9]": {"system": "HBV", "experiment": "HBV DNA hydrodynamic mouse model, intrahepatic HBV core DNA", "type": "in vivo, NOD/SCID mice", "conditions": "single 25 mg/kg intraperitoneal dose, 24 h after treatment", "procedure": "(§2) Ten-week-old female NOD/SCID mice were purchased from Vital River Laboratory Animal Technology Co. Ltd. All experiments were conducted with Institutional Animal Care and Use Committee approval. To establish HBV hydrodynamic model, 13.5 μg of plasmid pTmcsHBV1.3 expressing 1.3mer HBV genome and 4.5 μg of pCMV-SB expressing the Sleeping Beauty transposase were injected through tail vein, according to procedures previously described. To test the efficacy of DMXAA in vivo, 7 days post injection, mice were treated with either DMXAA (in PBS with 7.5% sodium Bicarbonate) at 25 mg/kg or vehicle, via intraperitoneal injection. Mice were sacrificed 24 h after treatment. Intrahepatic HBV core DNA was extracted and quantified by using a real-time PCR assay. Intrahepatic total RNA was extracted and the interferon stimulated genes (ISGs) OAS1b and viperin mRNAs were determined by real-time RT-PCR assay. Weight of individual mouse was monitored before and 24 h after the treatment.\n(§3) To further validate the antiviral effects of DMXAA in vivo, NOD/SCID mice were hydrodynamically injected with HBV 1.3mer plasmid to establish HBV replication in hepatocytes. […] (FIG. 9A) Twenty-four hours post treatment, HBV core DNA was extracted from livers and analyzed by a real-time PCR assay. […] (FIGS. 9B and 9C) Total RNA was extracted from livers and mRNA levels of OAS1b and viperin were analyzed by real-time RT-PCR assay. […]"}, "[10]": {"system": "interferon stimulated genes (ISGs) OAS1b and viperin", "experiment": "HBV hydrodynamic mouse model, intrahepatic ISG mRNA (OAS1b, viperin)", "type": "in vivo, NOD/SCID mice", "conditions": "single 25 mg/kg intraperitoneal dose, 24 h", "procedure": "as §2, §3"}, "[11]": {"experiment": "HBV hydrodynamic mouse model, body weight", "type": "in vivo, NOD/SCID mice", "conditions": "single 25 mg/kg intraperitoneal dose, 24 h; data not shown", "procedure": "as §2"}, "[12]": {"system": "IFN-β mRNA", "experiment": "qRT-PCR of IFN-β mRNA in RAW264.7 cells", "quoted_text": "(§6) For cytokine gene expression analysis, total RNA was extracted using TRIzol reagent. cDNAs were synthesized using SuperScript III (Invitrogen). Quantitative real-time PCR analysis was performed using a LightCycler 480 II (Roche).\n(§7) The amounts of mRNA specifying the specific cytokines and chemokines were quantified by real-time RT-PCR assays. Data (mean±standard deviation, N=3) were expressed as fold induction of gene expression relative to untreated controls."}, "[13]": {"system": "proinflammatory cytokines (IL6, IL1, IL10, TNF-α, IL12) and chemokine CXCL10", "experiment": "qRT-PCR of proinflammatory cytokine and chemokine mRNA in RAW264.7 cells", "quoted_text": "as §6, §7"}, "[14]": {"system": "HBV replication in human hepatoma cells (HepDES19)", "experiment": "Conditioned medium from DMXAA-treated THP-1hSTINGS162 cells on DES19 human hepatoma cells, HBV core DNA by real time PCR", "conditions": "media from THP1-hSTING/S162 cells treated 12 hrs, 6 days", "quoted_text": "Additionally, THP-1hSTINGS162 cells were treated with DMXAA for 12 hrs, conditioned medium with indicated dilution were then transferred to DES19, a human hepatoma cell line harboring HBV replication. HBV core DNA was extracted 6 days post treatment, and quantified by real time PCR assay. HBV DNA expression levels (means±standard deviations, N=3) were expressed as percentage relative to mock treated control. DES19 cells treated with IFN-α served as positive control (FIG. 10B)."}}, "note": "“Also recorded” adds a separate entry of the source."}
{"molecule": "O=c1cc(-c2ccccc2O)oc2cc(O)ccc12", "note": "[7, 2′-dihydroxyflavone]", "values": [{"measurement": "HBV DNA replication, direct treatment", "setting": "[1]", "result": "not direct"}, {"measurement": "HBV DNA replication, indirect treatment", "setting": "[2]", "result": "indirect, but not direct, antiviral activity against HBV"}, {"measurement": "HBV DNA replication, indirect treatment", "setting": "[2]; listed as 7, 2′ dihydroxyflavone", "result": "induces antiviral activity against HBV"}]}
{"molecule": "Cc1ccc2c(=O)c3cccc(CC(=O)O)c3oc2c1C", "note": "[DMXAA, 5,6-dimethylxanthenone-4-acetic acid]", "values": [{"measurement": "phosphorylation of TBK1", "setting": "[3]", "result": "efficiently induced phosphorylation of TBK1"}, {"measurement": "degradation of IκBα", "setting": "[4]", "result": "induced degradation of IκBα"}, {"measurement": "time at which activation of MAPK pathways (phosphorylated p38α, JNK, ERK) was evident", "setting": "[5]", "result": 90, "unit": "min"}, {"measurement": "amounts of HBV DNA replication intermediates", "setting": "[6]", "result": "decreased"}, {"measurement": "amount of HBV capsid protein", "setting": "[6]", "result": "reduced the amounts of HBV capsid protein"}, {"measurement": "antiviral response after blockade of type I IFN receptor", "setting": "[7]", "result": "significantly attenuated"}, {"measurement": "antiviral activity against HBV with STING knockdown cells", "setting": "[8]", "result": "significantly attenuated"}, {"measurement": "reduction of intrahepatic HBV core DNA versus vehicle", "setting": "[9]", "result": 1.3, "unit": "log"}, {"measurement": "OAS1b expression in liver", "setting": "[10]", "result": "significantly induced"}, {"measurement": "viperin expression in liver", "setting": "[10]", "result": "significantly induced"}, {"measurement": "reduction of average body weight", "setting": "[11]", "result": "approximately 8%"}, {"measurement": "time of peak of IFN-β response", "setting": "[12]", "result": 2, "unit": "h"}, {"measurement": "IFN-β mRNA expression relative to TLR1/2, TLR3 or TLR7 agonists", "setting": "[12]; 125 μM, 2 h post treatment", "result": "approximately 100 fold"}, {"measurement": "time of peak of inflammatory cytokine response (IL-1 and IL-10)", "setting": "[13]", "result": "≥ 6", "unit": "h"}, {"measurement": "IFN and inflammatory cytokine response profile", "setting": "[13]; qRT-PCR, DMXAA compared with TLR agonists", "result": "predominant IFN response, but less vigorous inflammatory cytokine response"}, {"measurement": "HBV DNA replication, direct treatment", "setting": "[1]", "result": "does not inhibit HBV DNA replication"}, {"measurement": "HBV replication in human hepatoma cells, conditioned media", "setting": "[14]", "result": "efficiently suppressed HBV replication"}, {"measurement": "HBV DNA replication, indirect treatment", "setting": "[2]", "result": "strong indirect anti-HBV activity; also recorded: inhibits HBV DNA replication in the mouse hepatocytes in a dose-dependent manner"}]}
{"molecule": "CCNCc1nc2c(N)nc3ccccc3c2n1CC(C)(C)O", "note": "[gardiquimod]", "values": [{"measurement": "HBV DNA replication, direct treatment", "setting": "[1]", "result": "did not apparently inhibit HBV DNA replication"}, {"measurement": "HBV DNA replication, indirect treatment", "setting": "[2]", "result": "potently inhibited HBV DNA replication"}]}
{"molecule": "CCN(CC)CCOc1ccc2c(c1)C(=O)c1cc(OCCN(CC)CC)ccc1-2", "note": "[tilorine, 2,7-Bis[2-(diethylamino)ethoxy]-9-fluorenone]", "values": [{"measurement": "HBV DNA replication, direct treatment", "setting": "[1]", "result": "neither directly nor indirectly inhibited HBV replication"}, {"measurement": "HBV DNA replication, indirect treatment", "setting": "[2]", "result": "neither directly nor indirectly inhibited HBV replication"}]}
{"molecule": "IFN-α", "values": [{"measurement": "antiviral response after blockade of type I IFN receptor", "setting": "[7]", "result": "significantly reduced"}]}
{"molecule": "Pam3CSK4", "values": [{"measurement": "amount of HBV capsid protein", "setting": "[6]", "result": "to lesser extents"}, {"measurement": "HBV DNA replication, direct treatment", "setting": "[1]", "result": "did not apparently inhibit HBV DNA replication"}, {"measurement": "HBV DNA replication, indirect treatment", "setting": "[2]", "result": "potently inhibited HBV DNA replication"}]}
{"molecule": "TNF-α", "values": [{"measurement": "HBV DNA replication, cytokine treatment", "setting": "[1]", "result": "inhibited HBV DNA replication"}]}
{"molecule": "poly I:C", "values": [{"measurement": "amount of HBV capsid protein", "setting": "[6]", "result": "to lesser extents"}, {"measurement": "HBV DNA replication, direct treatment", "setting": "[1]", "result": "did not apparently inhibit HBV DNA replication"}, {"measurement": "HBV DNA replication, indirect treatment", "setting": "[2]", "result": "potently inhibited HBV DNA replication"}]}
{"molecule": "B1", "values": [{"measurement": "HBV DNA replication, cytokine treatment", "setting": "[1]", "result": "only TNF-α inhibited HBV DNA replication"}]}
